The values below come from EP1207886B1, “SPHINGOMYELINASE INHIBITORS AS AGENTS WITH ANTIAPOPTOTIC AND ANTISEPTIC ACTION” (Biofrontera Pharmaceuticals GmbH, priority 1999, dated 2000).

Format in all cases: cell-based, Menschliche
The test system of test [1] is Mφ. The experiment in a line: Cell culture and apoptosis test (counting YOPRO-1-stained apoptotic cells). The conditions noted are these: differentiated Mφ pretreated 30 min with compound, then mmLDL or TNF α (3 ng/ml); YOPRO-1 count after four hours; read-out: Apoptose (IC-50). The source says:
LDL wurde von gesunden, freiwilligen Testpersonen durch sequentielle Flotation in einer Ultrazentrifuge bei vorbestimmten Dichten erhalten, wie in Havel et al. (J. Clin. Invest. 34, 3145 (1955)) bzw. Deigner et al. (Arzneim.-Forsch./Drug Res. 44, 956, (1994)) beschrieben. Für den Apoptose-Test wurde LDL durch Dialyse gegen Tris-HCl-Puffer, der 20 µMol FeCl3 enthielt, für 48 Stunden minimal modifiziert (mmLDL), wie von Watson et al. (J. Clin. Invest. 95, 774 (1995) beschrieben.
Menschliche, mononucleäre, periphere Blutzellen aus venösem Blut wurden isoliert, gezüchtet und, wie in Kinscherf et al. (The FASEB J. 11, 1317 (1997); The FASEB J. 12, 461 (1998)) beschrieben, bis zum Differenzieren zu Mφ belassen. Differenzierte Mφ wurden mit Lipoproteinmangelserum (P>1,21, durch Ultrazentrifugieren von fötalem Kälberserum hergestellt, wie in Havel et al. beschrieben) für 24 Stunden vor der Testdurchführung gezüchtet, mit der entsprechenden Verbindung für 30 Minuten bei den angeführten Konzentrationen vorbehandelt und anschließlich mLDL oder rekombinantem TNF α (3 ng/ml) in dem gleichen Medium ausgesetzt. Die Bestimmung der Apoptose wurde durch Zählen von YOPRO-1-gefärbten apoptotischen Zellen, wie in Idziorek et al. (J. Immunol. Methods 185, 249 (1995)) beschrieben, nach vier Stunden durchgeführt.

In the next test the target is T1, sauren Sphingomyelinase (Homo sapiens, UniProt P17405).
T1 construct: endogenous in cells; host or cells: human macrophages (treated with compound, then oxidised LDL; lysed, supernatant assayed)
T1 sequence (P17405 47-631): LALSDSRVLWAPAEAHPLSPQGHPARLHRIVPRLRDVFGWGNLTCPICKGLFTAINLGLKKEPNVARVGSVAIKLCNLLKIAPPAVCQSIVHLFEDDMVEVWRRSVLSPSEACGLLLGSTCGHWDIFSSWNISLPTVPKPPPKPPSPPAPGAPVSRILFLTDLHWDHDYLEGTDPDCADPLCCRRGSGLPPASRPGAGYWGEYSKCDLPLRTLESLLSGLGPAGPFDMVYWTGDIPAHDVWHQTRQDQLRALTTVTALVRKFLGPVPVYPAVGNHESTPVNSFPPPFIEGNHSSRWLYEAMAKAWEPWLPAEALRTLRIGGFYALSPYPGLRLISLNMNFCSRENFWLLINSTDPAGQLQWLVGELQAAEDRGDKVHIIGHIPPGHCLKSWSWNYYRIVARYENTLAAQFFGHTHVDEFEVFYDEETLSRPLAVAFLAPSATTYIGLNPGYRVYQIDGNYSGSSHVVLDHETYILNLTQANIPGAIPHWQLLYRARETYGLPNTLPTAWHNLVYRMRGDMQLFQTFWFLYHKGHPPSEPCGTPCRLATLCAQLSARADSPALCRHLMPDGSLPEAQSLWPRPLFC
Kind of test: SMase inhibition in cells (activity in cell lysates, BODIPY-FL-C5-sphingomyelin, HPLC). The conditions noted are these: for IC50: human macrophages pretreated 30 min with compound, then 2 h oxidised LDL (27 µg/ml), lysate activity at pH 5,0, read-out: Hemmung der sauren Sphingomyelinase (Zellen) (IC-50).

The next test concerns Ceramid. Kind of test: Ceramide concentration in cells (diacylglycerol-kinase phosphorylation). The conditions noted are these: Mφ, mmLDL or ceramide. The source says:
Die Ceramidkonzentrationen in den Zellen wurden nach Diacylglycerolkatalysierter Phosphorylierung, wie in Kinscherf et al. (FEBS, 405, 55 (1997)) und Dressler et al. (J. Biol. Chem. 265, 14917 (1990)) beschrieben, bestimmt.
Figur 1 zeigt in einem Diagramm die Phospho-Ceramid-Konzentration (cpm/spot) nach ox. LDL-Stimulierung zum einen ohne (ox) und zum anderen unter Zugabe entsprechender Verbindungen mit der allgemeinen Formel (I), die in den erfindungsgemäßen pharmazeutischen Zusammensetzungen enthalten sein können, nämlich [2-(3,4-Dimethoxyphenyl)-ethyl]-[3-(2-chlorphenothiazin-10-yl)-N-propyl]-methylamin (V3) und [3-(Carbazol-9-yl)-N-propyl]-[2-(4-methoxyphenyl)-ethyl]methylamin (V6). Ferner ist auch die Phospho-Ceramid-Konzentration in Folge der Stimulation durch TNF angegeben.

The subject of the next test is aSMase. Kind of test: RT-PCR of aSMase expression in Mφ. As to conditions: for mmLDL- oder Ceramid-induzierte Enzyminduktion: Mφ. Here is the method:
Fig. 5 zeigt die RT-PCR von aSMase in Mφ. Es zeigt sich eine Expression von aSMase (687 bp) nach Inkubation (4 h) von Mφ mit steigenden mmLDL-Konzentrationen.
(§1) Fig. 6 zeigt die Wirkung einer Vorbehandlung von Mφ mit einer Zusammensetzung die [3-(Carbazol-9-yl)-N-propyl]-[2-(4-methoxyphenyl)-ethyl]-methylamin (V6) enthält (2 µM, 30 min), auf die aSMase-Expression und die Apoptose in Mφ (Prozentanteil von apoptotischen Mφ, bestimmt durch YOPRO-1-Färbung nach Inkubation mit Medium oder C6-Ceramid (10 µM) mit oder ohne Vorbehandlung mit der Verbindung V6; Daten sind als Mittelwert ± SEM von drei Experimenten angegeben. *, P ≤ 0,05 vs. Kontrolle oder #, P ≤ 0,05 vs. mit C6-Ceramid behandelten Zellen (120 min)).
(§2) Menschliche, mononucleäre, periphere Blutzellen aus venösem Blut wurden mittels Ficoll-Paque (Sigma, Deisenhofen, BR Deutschland) Dichtegradientenzentrifugierung isoliert. Mφ wurden mmLDL (27 µg/ml), C6-Ceramid (10 µM) bzw. H2O2 (30 µM) unterworfen. Apoptotische Zellen wurden mittels YOPRO-1-Färbung (s. Idziorek et al, J. Immunol. Methods, 185, 1995, 249-258) und/oder mittels TUNEL-Technik (Quantum Appligene, Heidelberg, BR Deutschland) identifiziert. Die Bestimmung der Apoptose (Prozentanteil apoptotischer Zellen) wurde durch Zählen von YOPRO-1-gefärbten apoptotischen Zellen unter Verwendung eines Mikroskops, ausgestattet mit einer Quecksilberlampe und einer Fluoreszenzeinheit in Kombination mit einem Computer-unterstützten Morphometriesystem, quantifiziert.
Für die Amplifizierung der aSMase waren die Primer und die Bedingungen wie folgt: 5'-[…]-3' (vorwärts) und 5'-[…]-3', 94°C, 60°C, 72°C, jeweils 1 min, 40 Zyklen (Sequenzanalyse des gereinigten PCR-Produkts durch das Deutsche Krebsforschungszentrum, Heidelberg, BR Deutschland, bestätigte die Amplifizierung des erwarteten aSMase-Fragments).

The test system of test [2] is Mφ. Kind of test: Apoptosis in Mφ induced by C6-ceramide or mmLDL (YOPRO-1 staining / TUNEL). The conditions noted are these: for programmierten Zelltod in Mφ: mmLDL or ceramide. On the procedure:
as §1, §2

Experimental for sauren Sphingomyelinase: Menschliche Makrophagen wurden mit entsprechenden, in den erfindungsgemäßen Zusammensetzungen enthaltenen Verbindungen für 30 Minuten und anschließend zwei Stunden mit oxidiertem LDL (27 µg/ml) vorbehandelt. Anschließend wurde das Medium entfärbt, die Zellen mit vorgekühltem (4°C) PBS gewaschen und 15 Minuten mit Lysepuffer (NaAc, 250 mMol, pH 5,0, TritonX-100 0,2%) bei 4°C behandelt und zentrifugiert (18.000 g). Die Überstände (5 µl) wurden mit ARB-Puffer (NaAc, 250 mMol, pH 5,0) unter Erhalten einer Proteinkonzentration von 80 µg/ml verdünnt, 45 Minuten mit BODIPY®-FL-C5-sphingomyelin (8 nM) bei 37°C inkubiert. Anschließend wurden 150 µl Methanol (interner Standard: C5-BODIPY®-Säure) zugegeben. Die Proben wurden einer HPLC-Analyse (50% MeOH/10% Tris-HCl, pH 7,5, 10 mMol, 2 ml/min, E. Merck Lichrospher 125-4, 100-5 µMol RP-18, Fluoreszenzdetektion 503Ex/512Em) unterworfen.

Consider “10-(3-{4-[2-(3,-Dimethoxyphenyl)-ethyl]-3,5-dimethylpiperazin-1-yl}-propyl)-9H-carbazol [V42]”, for which, in the test with Mφ [1], the IC50 was 4 µM.
Still for that read-out and setting: the value for `COc1ccc(Cn2c(=O)c3ccccc3n(Cc3ccc(OC)cc3)c2=O)cc1` [1,3-Bis-(4-methoxybenzyl)-1H-chinazolin-2,4-dion] was 0.5 µM.
For the compound `COc1ccc(Cn2c(=O)[nH]c3ccccc3c2=O)cc1` [3-(4-Methoxybenzyl)-1H-chinazolin-2,4-dion], the IC50 in the test with Mφ [1] is 3 µM.
Same read-out and setting: the value for `COc1ccc(Cn2c3ccccc3c3ccccc32)cc1` [9-(4-Methoxybenzyl-9H-carbazol)] was 1 µM.
Turning to `COc1ccc(CCN(C)CCCN2c3ccccc3Sc3ccc(Cl)cc32)cc1OC` [V3, [2-(3,4-Dimethoxyphenyl)-ethyl]-[3-(2-chlorphenothiazin-10-yl)-N-propyl]-methylamin], the IC50 at sauren Sphingomyelinase turned out to be 6 µM; with Mφ [1], 2 µM. Also, in the test with Ceramid, the “Stimulierung der Ceramidbildung” value was “inhibieren”. In addition, the “mmLDL- oder Ceramid-induzierte Enzyminduktion” value in the test with aSMase is listed as “inhibieren”. Also, in the test with Mφ [2], the “programmierten Zelltod in Mφ” value was “vermindert”.
Consider `COc1ccc(CCN(C)CCCN2c3ccccc3Sc3ccc(Cl)cc32)cc1` [V4, [2-(4-Methoxyphenyl)-ethyl]-[3-(2-chlorphenothiazin-10-yl)-N-propyl]-methylamin], for which the IC50 with Mφ [1] stood at 5 µM.
For `COc1ccc(CCN(C)CCCn2c3ccccc3c3ccccc32)cc1OC` [V5, [3-(Carbazol-9-yl)-N-propyl]-[2-(3,4-dimethoxyphenyl)-ethyl]methylamin], the IC50 on sauren Sphingomyelinase worked out at 8 µM.
For the compound `COc1ccc(CCN(C)CCCn2c3ccccc3c3ccccc32)cc1` [V6, [3-(Carbazol-9-yl)-N-propyl]-[2-(4-methoxyphenyl)-ethyl]methylamin], the “Aktivierung des Enzyms” value on sauren Sphingomyelinase (ceramide-treated Mφ, measured in cell lysates) was “verhinderte”. Also, the IC50 at sauren Sphingomyelinase came out at 9 µM. Moreover, at sauren Sphingomyelinase (pretreatment of Mφ, mmLDL 27 µg/ml, basal activity 2,18 nmol/h x mg), the “durch mmLDL (27 µg/ml) initiierten Anstieg der aSMase-Aktivität in Zelllysaten” value is given as “vollständig verhindert”. In addition, in the test with Ceramid, the “Stimulierung der Ceramidbildung” value is “inhibieren”. The “mmLDL- oder Ceramid-induzierte Enzyminduktion” value in the test on aSMase is listed as “inhibieren”. The “Ceramid-vermittelte aSMase-Transkription” value in the test with aSMase (pretreatment of Mφ (2 µM, 30 min), C6-Ceramid (10 µM)) is listed as “verhinderte”. In the test on Mφ [2], the “programmierten Zelltod in Mφ” value is listed as “vermindert”. Moreover, the “Induktion von Apoptose” value in the test with Mφ [2] (pretreatment of Mφ (2 µM, 30 min), C6-Ceramid (10 µM), YOPRO-1) was “verhinderte”.
`COc1ccc(CCN(C)CCN2c3ccccc3CCc3ccccc32)cc1OC` [V15, [2-(10,11-Dihydro-dibenzo[b,f]azepin-5-yl)-N-ethyl]-[2-(3,4-dimethoxyphenyl)-ethyl]methylamin]: the IC50 at sauren Sphingomyelinase was determined as 14 µM.
On the same count and under the same terms, the value for `COc1ccc(CCN(C)CCN2c3ccccc3CCc3ccccc32)cc1` [V16, [2-(10,11-Dihydro-dibenzo[b,f]azepin-5-yl)-N-ethyl]-[2-(4-methoxyphenyl)-ethyl]methylamin] was 16 µM.
On the same count and under the same terms, the value for `COc1ccc(CCN2CCN(CCn3c4ccccc4c4ccccc43)CC2)cc1` [V18, N-[2-(Carbazol-9-yl)-N-ethyl]-N'-[2-(4-methoxyphenyl)-ethyl]piperazin] was 33 µM; that for `COc1ccc(CCNCCCNC2c3ccccc3CCc3ccccc32)cc1` [V22, N-(5H-Dibenzo[a,d]cycloheptan-5-yl)-N'-[2-(4-methoxyphenyl)-ethyl]-propylendiamin] was 10 µM; that for `COc1ccc(CCN(C)CCn2c3ccccc3c3ccccc32)cc1` [V23, [2-(Carbazol-9-yl)-N-ethyl]-[2-(4-methoxyphenyl)-ethyl]methylamin] was 8 µM.
As for `COc1ccc(CCN(C)CCC=C2c3ccccc3CCc3ccccc32)cc1` [V31, [3-(10,11-Dihydro-dibenzo[a,d]cyclohepten-5-yliden)-propyl]-[2-(4-methoxyphenyl)-ethyl]methylamin], the IC50 at sauren Sphingomyelinase amounted to 20 µM; with Mφ [1], 1.5 µM.
For `COc1ccc(CCN(C)C(F)(F)C(F)(F)C(F)(F)C(F)(F)n2c3ccccc3c3ccccc32)cc1` [V32, (4-Carbazol-9-yl-1,1,2,2,3,3,4,4-octafluorbutyl)-[2-(4-methoxyphenyl)-ethyl]-methylamin], the IC50 with Mφ [1] is 18 µM.
On the same count and under the same terms, the value for `COc1ccc(CCN(C)CCCN(c2ccccc2)c2ccccc2)cc1` [V34, N-[2-(4-Methoxyphenyl)-ethyl]-N-methyl-N',N'-diphenylpropan-1,3-diamin] was 3 µM; that for `COc1ccc(CCN(C)CCCN(c2ccccc2)c2ccccc2)cc1OC` [V35, N-[2-(3,4-Dimethoxyphenyl)-ethyl]-N-methyl-N',N'-diphenylpropan-1,3-diamin] was 6 µM.
On the same count and under the same terms, the value for `COc1ccc(CCN2C(C)CN(CCCN3c4ccccc4Oc4ccccc43)CC2C)cc1` (stereo not drawn) [V36, 10-(3-{4-[2-(4-Methoxyphenyl)-ethyl]-3,5-dimethylpiperazin-1-yl}-propyl)-10H-phenoxazin] was 1 µM; that for `COc1ccc(CCN(C)CCCN2c3ccccc3Oc3ccccc32)cc1OC` [V37, [2-(3,4-Dimethoxyphenyl)-ethyl]-methyl-(phenoxazin-10-yl-propyl)amin] was 2.5 µM; that for `COc1ccc(CCN(C)CCC=C2c3ccccc3CCc3ccccc32)cc1OC` [V38, [3-(10,11-Dihydro-dibenzo[a,d]cyclohepten-5-yliden)-propyl]-[2-(3,4-dimethoxyphenyl)-ethyl]methylamin] was 6 µM.
Same read-out and setting: the value for `COc1ccc(CCN2CCCN(C3c4ccccc4CCc4ccccc43)C2)cc1OC` [V41, N-(10,11-Dihydro-5H-dibenzo[a,d]cyclohepten-5-yl)-N'-[2-(3,4-dimethoxyphenyl)-ethyl]-hexahydropyrimidin] was 7 µM.
